# Where two headings read alike, the source gives them in different places.
# Tests used:
# exocrine-like PACO cells = type: cell-based, human
# Protocol: (§1) Quantitative results were analyzed by one-way analysis of variance (multiple groups/grouped analysis) and Student's t test (two groups), using GraphPad Prism (Graph Pad Software). Survival analysis was performed using Mantel-Cox log-rank test as well as Cox proportional hazards multivariate analysis using the Statistical Package for the Social Sciences (IPM SPSS software). Additionally, Pearson chi-squared test was used for comparative data analysis, using SPSS. We considered p<0.05 (two-sided) as statistically significant. For GSEA a False Discovery Rate (FDR) of <0.2 was considered statistically significant. Treatment data were evaluated by determining the activity area (Barretina et al., 2012) from each dose response curve by adding max (100-mean response, 0) for every concentration. Activity areas from the same biological replicate were compared by paired t-test. Calculations were performed in R Version 3.1.0 (Chee et al., 2013).
# CYP3A5 [1] = assay: CYP3A5 mRNA (qRT-PCR) and protein (Western blot) expression in PACO cells after drug exposure; type: cell-based, human; conditions: for CYP3A5 mRNA expression in drug-resistant cell lines: PACO2, PACO7 after 8 weeks of increasing doses, vs control cell lines; for CYP3A5 expression in response to drug: QM-PDA (PACO9) and classical (PACO2) PACO lines, 10 μM drug; for CYP3A5 mRNA and protein expression in response to drug: exocrine-like PACO10, PACO14, 10 μM drug vs basal level
# CYP3A5 [2] = assay: Measurement of conversion of erlotinib and dasatinib in cell supernatant (LC-MS/MS); type: in vitro ADME, human; conditions: 1 μM and 10 μM; for metabolism of drug in the absence of CYP3A5: CYP3A5 siRNA transfected exocrine-like PACO14, PACO18; for conversion of drug (disappearance of unmodified structure from supernatant): exocrine-like PACO14, PACO18, six time points
# Protocol: In brief, the amount of unmodified dasatinib and erlotinib in the supernatant of cells was monitored by quantitative LC-MS/MS analysis on an AB Sciex QTrap 5500 tandem mass spectrometer.
# 500 μl of reaction media were quenched with 1,000 μL of acetonitrile at each time point and mixed. After centrifugation clear supernatants were pre-diluted with PACO media and acetonitrile at a ratio 1:25. 100 μL of the sample were transferred into a new vial, followed by addition of 10 μL (S)-(−)-Propranolol hydrochloride solution (105 μg/L) and finally vigorously mixed. 10 μL were injected onto column. Calibration and quality control samples were prepared by spiking either dasatinib or erlotinib to the PACO media. The sample was injected onto a PerfectSil Target ODS-3, 3 μm, 100×2.1 mm HPLC column (MZ-Analysentechnik, Mainz, Germany), using an Agilent 1100 (Agilent, Waldbrunn, Germany) binary pump and degasser, with a CTC PAL sampler (CTC Analytics, Zwingen, Switzerland). The column temperature was 35° C. Chromatographic separation was performed by gradient elution at a constant flow rate of 250 μL/min for 15 minutes. The gradient consisted of 20 mM NH4OAc plus 0.1% formic acid (mobile phase A) and 400 mM NH4OAc/methanol/acetonitrile 5:5:90 plus 0.1% formic acid (mobile phase B). The gradient applied was 0.0 min, 70% A/30% B; 1.5 min 70% A/30% B; 3.0 min 5% A/95% B; 11.0 min 5% A/95% B; 11.5 min 70% A/30% B and 15 min 70% A/30% B. The eluate was directed to an AB Sciex QTrap 5500 tandem mass spectrometer (AB Sciex, Darmstadt, Germany) with an electron spray ionization (ESI) source from 4 to 8 min runtime. Mass transitions of 488.1 to 401.1 for dasatinib, 394.0 to 278.1 for erlotinib and 260.1 to 116.1 for (S)-(−)-Propranolol were monitored. […] Nitrogen was produced by a high purity nitrogen generator (CMC Instruments) and applied to curtain, collision and drying gasses. De-clustering potentials, collision energy and collision exit potential were as follows: 26 V, 39 V and 12 V for dasatinib, 16 V, 43 V and 26 V for erlotinib and 61 V, 23 V and 14 V for (S)-(−)-Propranolol.
# CYP3A4 and CYP3A7 [3] = conditions: for expression of CYP3A4 and CYP3A7 in drug-resistant cell lines: PACO2, PACO7 after 8 weeks of increasing doses; for expression of CYP3A4 and CYP3A7 in response to drug: PACO2, PACO10, PACO14, PACO9, 10 μM drug
# [4] = system: classical and QM-PDA PACO cells; assay: Drug treatment assay, relative cell viability (CellTiterBlue); type: cell-based, human; conditions: for drug sensitivity after ketoconazole pre-treatment (relative cell viability, activity area): QM-PDA (PACO9) and classical (PACO2), 100 nM ketoconazole pre-treatment for 2 hours vs vehicle, 48 hours; for drug sensitivity (relative cell viability): classical and QM-PDA subtype PACO lines, 1 μM or 10 μM, after 48 hours
# Protocol: as §1
# [5] = system: tumors derived from exocrine-like PACO lines (PACO10, PACO14); assay: In vivo drug treatment of subcutaneous shCYP3A5 or shScr PACO tumors; design: species or system NSG mice; conditions: 100 mg/kg oral gavage, 5 days on / 2 days rest, 14 days
# Protocol: Tumors were established by subcutaneously injecting 5×10^5 shCYP3A5 or shScr PACO cells into female NOD.Cg-Prkdc^scid II2rg^tm1Wjl (NSG) mice (n=48) using Matrigel (2 mg/ml) in a total injection volume of 100 μl. After the tumors reached a size of approximately 200 mm^3, mice were randomized into eight groups (n=6 each) for drug administration. Erlotinib was prepared in 0.5% methylcellulose, 0.1% Tween 80 and 99.4% water for injection (WFI). Erlotinib (100 mg/kg) or vehicle were then administrated by oral gavage at 5 consecutive days followed by 2 days of rest, for duration of 14 days. Tumor volume was determined twice weekly by calliper measurements and calculated according to the formula (length×height×width)×(π/6). Tumor growth was calculated for each individual tumor by normalizing to the tumor volume at day 0. After two weeks of treatment, mice were sacrificed and tumors were resected for further analysis.
# [6] = system: drug-resistant sublines of classical (PACO2) and QM-PDA (PACO7) cells; assay: Drug sensitivity of drug-resistant sublines from 8-week treatment; conditions: for resistance of sublines to the drug used for long-term treatment: PACO2, PACO7 treated with increasing doses over 8 weeks, vs DMSO-control treated parental lines
# SNU5 cells = assay: Paclitaxel sensitivity of gastric cancer cells; type: cell-based, human; conditions: gastric cancer cell line SNU5
# HepG2 cells = assay: Paclitaxel sensitivity of hepatocellular carcinoma cells
# CYP3A5 [7] = assay: CYP3A5 expression in xenografts after paclitaxel treatment in vivo (qRT-PCR, immunohistochemistry); design: species or system mice; conditions: classical subtype (PACO17) xenografts; after 18 days of treatment; vs vehicle
# CYP3A4 and CYP3A7 [8] = assay: CYP3A4 and CYP3A7 expression in xenografts after paclitaxel treatment in vivo (qRT-PCR); design: species or system mice; conditions: classical subtype (PACO17) xenografts; after 18 days of treatment; vs vehicle
# [9] = exocrine-like subtype PACO lines, 1 μM or 10 μM, after 48 hours
Compound,"drug sensitivity after CYP3A5 siRNA knockdown (relative cell viability, activity area) (exocrine-like PACO cells)",CYP3A5 mRNA expression in drug-resistant cell lines (CYP3A5 [1]),CYP3A5 expression in response to drug (CYP3A5 [1]),CYP3A5 mRNA and protein expression in response to drug (CYP3A5 [1]),metabolism of drug in the absence of CYP3A5 (CYP3A5 [2]),conversion of drug (disappearance of unmodified structure from supernatant) (CYP3A5 [2]),expression of CYP3A4 and CYP3A7 in drug-resistant cell lines (CYP3A4 and CYP3A7 [3]),expression of CYP3A4 and CYP3A7 in response to drug (CYP3A4 and CYP3A7 [3]),drug sensitivity (relative cell viability) (exocrine-like PACO cells; [9]),"drug sensitivity after ketoconazole pre-treatment (relative cell viability, activity area) [4]",drug sensitivity (relative cell viability) [4],resistance of sublines to the drug used for long-term treatment [6],other results
Cc1nc(Nc2ncc(C(=O)Nc3c(C)cccc3Cl)s2)cc(N2CCN(CCO)CC2)n1 [dasatinib],dramatically sensitized,significantly higher,did not prompt CYP3A5 expression,strongly induced,completely abolished,rapid conversion,not detectable,not induced,,,,,
C#Cc1cccc(Nc2ncnc3cc(OCCOC)c(OCCOC)cc23)c1 [erlotinib],dramatically sensitized,significantly higher,did not prompt CYP3A5 expression,strongly induced,completely abolished,rapid conversion,not detectable,not induced,almost completely resistant,remained unchanged,sensitive,significantly higher resistance,"drug sensitivity after ketoconazole pre-treatment (relative cell viability, activity area) (exocrine-like PACO cells; exocrine-like (PACO14), 100 nM ketoconazole pre-treatment for 2 hours vs vehicle, 48 hours): significantly more sensitive; growth of CYP3A5 knockdown tumors ([5]; shCYP3A5 tumors): completely inhibited; effect on growth of control tumors ([5]; shScr control tumors): no effect"
Nc1ccn([C@@H]2O[C@H](CO)[C@@H](O)C2(F)F)c(=O)n1 [gemcitabine],remained unchanged,,did not prompt CYP3A5 expression,did not lead to the induction of CYP3A5,,,,not induced,almost completely resistant,remained unchanged,sensitive,,
CCc1c2c(nc3ccc(OC(=O)N4CCC(N5CCCCC5)CC4)cc13)-c1cc3c(c(=O)n1C2)COC(=O)[C@]3(O)CC [irinotecan],,,,,,,,,,,,,"drug sensitivity after knockdown of CYP3A5 (exocrine-like PACO cells): sensitive; drug sensitivity (relative cell viability) (exocrine-like PACO cells; exocrine-like subtype compared to the other two subtypes, 1 μM and 10 μM, 48 h and 7 d): highly resistant"
CC(=O)N1CCN(c2ccc(OCC3COC(Cn4ccnc4)(c4ccc(Cl)cc4Cl)O3)cc2)CC1 (stereo not drawn) [ketoconazole],,,,,,,,,,,,,"sensitization to paclitaxel by inhibition of CYP activity (SNU5 cells): strongly sensitized; sensitization to paclitaxel by inhibition of CYP function (HepG2 cells; HepG2 cells, compared with CYP3A5 knockdown): even stronger sensitization; sensitization of paclitaxel-resistant cell lines by co-treatment ([6]; paclitaxel-resistant PACO2 and PACO7 sublines, co-treatment with paclitaxel): comparable sensitization"
CC(=O)O[C@H]1C(=O)[C@@]2(C)[C@H]([C@H](OC(=O)c3ccccc3)[C@]3(O)C[C@H](OC(=O)[C@H](O)[C@@H](NC(=O)c4ccccc4)c4ccccc4)C(C)=C1C3(C)C)[C@]1(OC(C)=O)CO[C@@H]1C[C@@H]2O [paclitaxel],,significantly higher,,,,,not detectable,,,,,significantly higher resistance,"CYP3A5 expression in treated xenografts (CYP3A5 [7]): upregulation of CYP3A5; expression of CYP3A4 and CYP3A7 in treated xenografts (CYP3A4 and CYP3A7 [8]): not upregulated; sensitivity to drug (HepG2 cells; HepG2 cells treated with non-targeting control siRNA): almost completely resistant; sensitivity to drug after knockdown of CYP3A5 (HepG2 cells; HepG2 cells, siRNA-mediated knockdown of CYP3A5): significantly sensitized"

# Source: patent publication US10669588B2, “Methods for sub-typing and treating cancer” (HI-STEM GGMBH im Deutschen, priority 2014, dated 2020)
